Reference: patent EP4635500A1, “THERAPEUTIC AGENT FOR BACTERIAL INFECTION” (Sumitomo Pharma Co., Ltd., priority 2022, dated 2024)
Converted amounts (≈) assume the structure as drawn. Where two headings read alike, the source gives them in different places.

Experiments:
Assay type in all cases: cell-based
[1] = tested on: Klebsiella pneumoniae; assay: MIC and MBC, broth microdilution (Example 4, Table 3)
[2] = tested on: Escherichia coli; assay: as above
[3] = tested on: Enterobacter cloacae complex; assay: as above; conditions: Enterobacter cloacae complex CDC-164 (NMC-A)
[4] = tested on: Prevotella spp.; assay: MIC, agar dilution, anaerobic bacteria (Example 9, Tables 18, 23); conditions: for MIC: (n)=Compound A µg/mL, 0=Compound A alone antibacterial
[5] = Escherichia coli CDC-150 (NDM-5)

CC(C)(O/N=C(\C(=O)N[C@@H]1C(=O)N2C(C(=O)[O-])=C(C[n+]3ccccc3)CS[C@H]12)c1csc(N)n1)C(=O)O [CAZ, ceftazidime]
MIC ([1]; ATCCBAA2470, Klebsiella pneumoniae ATCC BAA-2470 (NDM-1), read-out: MIC): > 128 mg/L
MIC ([1]; Klebsiella pneumoniae): > 128 mg/L
MBC/MIC ratio ([1]; Klebsiella pneumoniae ATCC BAA-2524 (OXA-48)): 1
MIC ([1]; Klebsiella pneumoniae CDC-505 (NDM-1)): >128 mg/L
MIC ([1]; Klebsiella pneumoniae KUB3607 (IMP-1)): >128 mg/L
MIC ([1]; Klebsiella pneumoniae NCTC13440 (VIM-1), read-out: MIC): > 128 mg/L
MIC ([1]; Klebsiella pneumoniae, ATCCBAA2344): > 128 mg/L
MBC ([1]; Klebsiella pneumoniae, ATCCBAA2344, Klebsiella pneumoniae ATCC BAA-2344 (KPC-2)): > 128 mg/L
MBC ([1]; Klebsiella pneumoniae, ATCCBAA2470, Klebsiella pneumoniae ATCC BAA-2470 (NDM-1)): > 128 mg/L
MBC ([1]; Klebsiella pneumoniae, ATCCBAA2524, Klebsiella pneumoniae ATCC BAA-2524 (OXA-48)): 0.5 mg/L (≈ 0.915 µM)
MIC ([1]; Klebsiella pneumoniae, ATCCBAA2524, Klebsiella pneumoniae ATCC BAA-2524 (OXA-48), read-out: MIC): 0.5 mg/L (≈ 0.915 µM)
MBC ([1]; Klebsiella pneumoniae, Klebsiella pneumoniae CDC-112 (KPC-3)): > 128 mg/L
MBC ([1]; Klebsiella pneumoniae, Klebsiella pneumoniae CDC-505 (NDM-1)): > 128 mg/L
MBC ([1]; Klebsiella pneumoniae, Klebsiella pneumoniae KUB3607 (IMP-1)): > 128 mg/L
MBC ([1]; Klebsiella pneumoniae, NCTC13440, Klebsiella pneumoniae NCTC13440 (VIM-1)): > 128 mg/L
MBC/MIC ratio [2]: 1
MBC ([2]; ATCCBAA2340, Escherichia coli ATCC BAA-2340 (KPC-3), read-out: MBC): 128 mg/L (≈ 234 µM)
MBC ([2]; ATCCBAA2469, Escherichia coli ATCC BAA-2469 (NDM-1), read-out: MBC): > 128 mg/L
MIC ([2]; ATCCBAA2469, Escherichia coli ATCC BAA-2469 (NDM-1), read-out: MIC): > 128 mg/L
MBC [2, 5]: >128 mg/L
MIC [2, 5]: >128 mg/L
MBC ([2]; Escherichia coli CDC-162 (NDM-7), read-out: MBC): > 128 mg/L
MIC ([2]; Escherichia coli CDC-162 (NDM-7), read-out: MIC): > 128 mg/L
MBC ([2]; Escherichia coli NCTC13476 (IMP-1), read-out: MBC): > 128 mg/L
MIC ([2]; Escherichia coli NCTC13476 (IMP-1), read-out: MIC): > 128 mg/L
MIC ([2]; Escherichia coli, ATCCBAA2340): 128 mg/L (≈ 234 µM)
MBC [3]: 32 mg/L (≈ 58.5 µM)
MBC/MIC ratio [3]: 1
MIC [3]: 32 mg/L (≈ 58.5 µM)

Cc1ncc([N+](=O)[O-])n1CCO [Metronidazole]
MIC ([4]; KUB No. 2989 Prevotella histicola): 0.5 mg/L (≈ 2.92 µM)
MIC ([4]; KUB No. 2991 Prevotella intermedia): 0.5 mg/L (≈ 2.92 µM)
MIC ([4]; KUB No. 2992 Prevotella buccae): 1 mg/L (≈ 5.84 µM)
MIC ([4]; KUB No. 3005 Prevotella melaninogenica): 1 mg/L (≈ 5.84 µM)
MIC ([4]; KUB No. 6558 Prevotella heparinolytica): 0.25 mg/L (≈ 1.46 µM)
MIC ([4]; KUB No. 6559 Prevotella intermedia): 2 mg/L (≈ 11.7 µM)
MIC ([4]; KUB No. 6560 Prevotella nigrescens): 0.5 mg/L (≈ 2.92 µM)
MIC ([4]; KUB No. 6561 Prevotella melaninogenica): 1 mg/L (≈ 5.84 µM)
MIC ([4]; KUB No. 6563 Prevotella nigrescens): 0.5 mg/L (≈ 2.92 µM)
MIC ([4]; KUB No. 6564 Prevotella buccae): 2 mg/L (≈ 11.7 µM)
MIC ([4]; KUB No. 6565 Prevotella nigrescens): 0.5 mg/L (≈ 2.92 µM)
MIC ([4]; KUB No. 6567 Prevotella melaninogenica): 0.5 mg/L (≈ 2.92 µM)
MIC ([4]; KUB No. 6568 Prevotella intermedia): 1 mg/L (≈ 5.84 µM)
MIC ([4]; KUB No. 6569 Prevotella nanceiensis): 2 mg/L (≈ 11.7 µM)
MIC ([4]; KUB No. 6570 Prevotella intermedia): 2 mg/L (≈ 11.7 µM)
MIC ([4]; KUB No. 6571 Prevotella denticola): 0.25 mg/L (≈ 1.46 µM)
MIC ([4]; KUB No. 6572 Prevotella melaninogenica): 0.5 mg/L (≈ 2.92 µM)
MIC ([4]; KUB No. 6574 Prevotella oris): 0.5 mg/L (≈ 2.92 µM)
MIC ([4]; KUB No. 6575 Prevotella nigrescens): 1 mg/L (≈ 5.84 µM)
MIC ([4]; KUB No. 6576 Prevotella intermedia): 0.25 mg/L (≈ 1.46 µM)
MIC ([4]; KUB No. 6579 Prevotella pallens): 0.5 mg/L (≈ 2.92 µM)
MIC ([4]; KUB No. 6581 Prevotella intermedia): 2 mg/L (≈ 11.7 µM)
MIC ([4]; KUB No. 6582 Prevotella melaninogenica): 0.5 mg/L (≈ 2.92 µM)
MIC ([4]; KUB No. 6585 Prevotella baroniae): 1 mg/L (≈ 5.84 µM)
MIC ([4]; KUB No. 6587 Prevotella melaninogenica): ≤ 0.12 mg/L
MIC ([4]; KUB No. 6588 Prevotella nigrescens): 0.5 mg/L (≈ 2.92 µM)
MIC ([4]; KUB No. 6589 Prevotella buccae): 0.5 mg/L (≈ 2.92 µM)
MIC ([4]; KUB No. 6590 Prevotella buccae): 0.5 mg/L (≈ 2.92 µM)
MIC ([4]; KUB No. 6591 Prevotella intermedia): 0.5 mg/L (≈ 2.92 µM)
MIC ([4]; KUB No. 6592 Prevotella jejuni): 0.5 mg/L (≈ 2.92 µM)
MIC ([4]; KUB No. 6600 Prevotella intermedia): 0.5 mg/L (≈ 2.92 µM)
MIC ([4]; KUB No. 6601 Prevotella melaninogenica): 0.5 mg/L (≈ 2.92 µM)
MIC ([4]; KUB No. 6603 Prevotella melaninogenica): 0.25 mg/L (≈ 1.46 µM)
MIC ([4]; KUB No. 6609 Prevotella buccae): 0.5 mg/L (≈ 2.92 µM)
MIC ([4]; KUB No. 6611 Prevotella nigrescens): 1 mg/L (≈ 5.84 µM)
MIC ([4]; KUB No. 6612 Prevotella oris): 0.5 mg/L (≈ 2.92 µM)
MIC ([4]; KUB No. 6613 Prevotella buccae): 0.5 mg/L (≈ 2.92 µM)
MIC ([4]; KUB No. 6614 Prevotella intermedia): 1 mg/L (≈ 5.84 µM)
MIC ([4]; KUB No. 6615 Prevotella buccae): 1 mg/L (≈ 5.84 µM)
MIC ([4]; KUB No. 6617 Prevotella buccae): 2 mg/L (≈ 11.7 µM)
MIC ([4]; KUB No. 6618 Prevotella melaninogenica): 0.25 mg/L (≈ 1.46 µM)
MIC ([4]; KUB No. 6622 Prevotella loescheii): 1 mg/L (≈ 5.84 µM)
MIC ([4]; KUB No. 6623 Prevotella nigrescens): 1 mg/L (≈ 5.84 µM)
MIC ([4]; KUB No. 6625 Prevotella melaninogenica): 0.5 mg/L (≈ 2.92 µM)
MIC ([4]; KUB No. 6626 Prevotella loescheii): 1 mg/L (≈ 5.84 µM)
MIC ([4]; KUB No. 6629 Prevotella bivia): 8 mg/L (≈ 46.7 µM)
MIC ([4]; KUB No. 6630 Prevotella nigrescens): 0.5 mg/L (≈ 2.92 µM)
MIC ([4]; KUB No. 6631 Prevotella jejuni): 0.5 mg/L (≈ 2.92 µM)
MICrange ([4]; Prevotella spp.): ≤0.12 to 8 µg/mL
MIC50 ([4]; Prevotella spp., read-out: MIC50): 0.5 mg/L (≈ 2.92 µM)
MIC90 ([4]; Prevotella spp., read-out: MIC90): 2 mg/L (≈ 11.7 µM)
MIC ([4]; Prevotella, KUB No. 6583 Prevotella nonceiensis): 2 mg/L (≈ 11.7 µM)
MIC ([4]; Prevotella, KUB No. 6604 Prevotella nonceiensis): 1 mg/L (≈ 5.84 µM)
MIC ([4]; po, KUB No. 6566 Prevotella oralis): 0.25 mg/L (≈ 1.46 µM)
